Measurements as given in patent US6225478A, “Iridoid derivatives and neovascularization inhibitors containing the same as active ingredient” (Tsumura & Co., priority 1999, dated 2001).
Values after ≈ are worked out from the molar mass of the structure shown. Like-named read-outs stand apart in the source and are kept apart here.

Tests used:
Type in all cases: cell-based
[1] = test system: human umbilical-vein endothelial cells (HUVEC); assay: Tube Formation Assay (TFA) Test, HUVEC in collagen gel; settings: 20 hours, 40% or less judged remarkable; for inhibition at 1 µg/mL / inhibition at 10 µg/mL: Homo sapiens, HUVEC, read-out: TFA (inhibition rate, %)
Method in brief: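 Inhibition rate (%) of tube formation is computed from tube lengths against control (+) and control (-), measured after 20 h at 37 °C in M-199 with 20% FCS, 30 ng/ml b-FGF and 0.1 μM PMA. Samples were applied to HUVEC on collagen and covered by a second collagen layer (double-layer gel).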

[2] = test system: human umbilical-vein endothelial cells (HUVEC); assay: Cell Migration Assay (CMA) Test, HUVEC (% relative to control); settings: 24 hours, 60% or less = remarkable inhibition; for activity at 1 µg/mL / activity at 10 µg/mL: Homo sapiens, HUVEC, read-out: CMA (% relative to control)
Experimental: (§1) Furthermore, the sample liquids of compounds used in the CPA and CMA tests were prepared in the manner described below. Firstly, after weighing out each compound, a calculated amount of DMSO was added. After dissolving the compound in the DMSO, phosphate buffered physiological saline (PBS (-)) was added to bring the sample concentration to 1 mg/ml in PBS (-). The amount of DMSO used to dissolve the compounds was adjusted in advance to that the concentration of DMSO at that time was 5%. The resulting liquids were diluted 10-fold with 5% DMSO-PBS (-) solution to prepare sample solutions having a concentration of 0.1 mg/ml. In the TFA test, 320 μl of the prepared 1 mg/ml sample solutions were removed followed by addition of 680 μl of PBS (-) to prepare samples having a concentration of […]. Moreover, 100 μl of this solution was removed followed by addition of 900 μl of PBS (-) to dilute 10-fold and prepare samples having a concentration of 1 μg/ml. P [Cell Proliferation Assay (CPA) Test]
After disseminating the 7th subculture of HUVEC obtained from the first generation in the same manner as above at 4 ml/well (3.0×10^5 cells/well) in a collagen-coated 6-well plate (NUNC), the cells were cultured for 48 hours at 37° C. in the presence of 5% CO2. The cells reached nearly a completely confluent state as a result of this culturing.
A double-edged, disposable razor blade was divided into four sections, of which one of those sections was pinched between a pair of forceps. Using this piece of razor blade, the cell surface in the above confluent state was scraped off. Two areas of the cell surface were scraped off in each well.
After washing the surface of the wells from which the cells had been scraped off with medium, 4.0 ml of fresh M199 (2+) medium were added followed by addition of 40 μl or 4 μl of sample solution (1 mg/ml). The cells were cultured for 24 hours at 37° C. in the presence of 5% CO2. After discarding the culture liquid, the cells were fixed for 30 minutes with methanol. Next, after staining the cells for 4 hours with Giemsa stain, the plates were washed with tap water and air dried.
Measurement of cell migration was performed by microscopically counting the number of cells that had newly migrated within the range of a 1 mm×1 mm block. […] The total number of cells counted in blocks 1 through 5 were then totaled to determine the overall total number of cells. Four fields were counted for each well.
Evaluation was performed determining the cell migration (%) according to the following formula.
Cell migration rate=number of migrating cells to which sample was added×100/number of migrating of control (+)
Control (+) indicates the number of migrating cells in the control well containing M199 (2+).

[3] = test system: human umbilical-vein endothelial cells (HUVEC); assay: Cell Proliferation Assay (CPA) Test, HUVEC, MTT; settings: M199 (2+) medium; for IC50: Homo sapiens, read-out: CPA (IC50 μg/ml)
Experimental: as §1
100 μl of the 7th subculture obtained from first generation human umbilical-vein endothelial cells (HUVEC) were disseminated in the wells (N=3) of a 96-well plate (Iwaki, Cat. #4860-010) at a cell concentration of 5×10^4 cells/ml. M-199 medium containing +20% FCS, 10 ng/ml of b-FGF and 10 ng/ml of EGF (abbreviated as "M199 (2+)") was used for the medium.
After culturing for 24 hours at 37° C. in the presence of 5% CO2 under the above conditions, 20 μl/well of MTT solution (solution containing 5 mg/ml of PBS (-)) were added to the control well followed by accurately culturing for 4 hours at 37° C. in the presence of 5% CO2. Following completion of culturing, 100 μl/well of a stop solution (0.001 N aqueous HCl solution containing 10% SDS) were added. On the other hand, 10 μl/well of sample solutions at concentrations of 1 mg/ml and 0.1 mg/ml were added to the other wells.
After culturing for 24 hours at 37° C. in the presence of 5% CO2, the medium was replaced and 100 μl/well of M199 (2+) were added. The samples were also replaced in each well at this time.
Moreover, after additionally culturing for 48 hours at 37° C. in the presence of 5% CO2, 20 μl/well of MTT solution were added to the wells containing sample and the control well followed by accurately culturing for 4 hours at 37° C. and adding 100 μl/well of stop solution.

SMILES	inhibition at 1 µg/mL ([1]; 20 h, 1 μg/ml)	inhibition at 10 µg/mL ([1]; 20 h, 10 μg/ml)	activity at 1 µg/mL ([2]; 1 μg/ml)	activity at 10 µg/mL ([2]; 10 μg/ml)	IC50 [3]	inhibition at 1 µg/mL ([1]; 1 μg/ml)	inhibition at 10 µg/mL ([1]; 10 μg/ml)	TFA (inhibition rate, %) ([1]; 1 μg/ml)	TFA (inhibition rate, %) ([1]; 10 μg/ml)	CMA (% relative to control) ([2]; 1 μg/ml)	CMA (% relative to control) ([2]; 10 μg/ml)	CPA (IC50 μg/ml) [3]
CNC(=O)O[C@@H]1OC=C(C(=O)Oc2ccccc2)[C@H]2C[C@@H]3O[C@]3(C)[C@H]12 [compound 13, (1S,4aS,6S,7R,7aR)-6,7-epoxy-1,4a,5,6,7,7a-hexahydro-7-methyl-1-(methylcarbamoyloxy) cyclopenta [c]-pyrane-4-carboxylic acid phenylester]	36.3%	36.8%	94.1%	94%	53.3 µg/mL (≈ 154 µM)							
COC(=O)C1=CO[C@@H](OC(=O)Nc2ccc(F)cc2)[C@@H]2[C@@H]1C[C@@H]1O[C@]21C [compound 36, (1S,4aS,6S,7R,7aR)-6,7-epoxy-1,4a,5,6,7,7a-hexahydro-1-[(4-fluorophenyl)carbamoyloxy]-7-methylcyclopenta [c] pyrane-4-carboxylic acid methylester]	6.9%	-18.3%	95%	99.7%	> 100 µg/mL							
C=CCCCOC(=O)C1=CO[C@@H](OC(=O)NC)[C@@H]2[C@@H]1C[C@@H]1O[C@]21C [compound 7, (1S,4aS,6S,7R,7aR)-6,7-epoxy-1,4a,5,6,7,7a-hexahydro-7-methyl-1-(methylcarbamoyloxy) cyclopenta [c]-pyrane-4-carboxylic acid 4-pentenylester]	25.8%	18.2%	82.6%	79.7%	90.6 µg/mL (≈ 269 µM)							
O=c1[nH]cc(F)c(=O)[nH]1 [5-FU, 5-fluorouracil, reference compound]			102%	92.9%	3.5 µg/mL (≈ 26.9 µM)	42.4%	52.3%					
CNC(=O)O[C@@H]1OC=C(C(=O)NCc2ccccc2)[C@H]2C[C@@H]3O[C@]3(C)[C@H]12 [compound 27, (1S,4aS,6S,7R,7aR)-6,7-epoxy-1,4a,5,6,7,7a-hexahydro-7-methyl-1-(methylcarbamoyloxy) cyclopenta [c]-pyrane-4-carboxylic acid benzylamide]	29.1%	32.7%	94.5%	103%	> 100 µg/mL							
COC(=O)C1=CO[C@@H](OC(=O)NCCCl)[C@@H]2[C@@H]1C[C@@H]1O[C@]21C [compound 32, (1S,4aS,6S,7R,7aR)-1-[(2-chloroethyl)carbamoyloxy]-6,7-epoxy-1,4a,5,6,7,7a-hexahydro-7-methylcyclopenta [c] pyrane-4-carboxylic acid methylester]			93%	97%	> 100 µg/mL	68.8%	30%					
CNC(=O)O[C@@H]1OC=C(C(=O)OCCc2ccccc2)[C@H]2C[C@@H]3O[C@]3(C)[C@H]12 [compound 12, (1S,4aS,6S,7R,7aR)-6,7-epoxy-1,4a,5,6,7,7a-hexahydro-7-methyl-1-(methylcarbamoyloxy) cyclopenta [c]-pyrane-4-carboxylic acid phenylethylester]	32.7%	32.5%	101%	89.8%	> 100 µg/mL							
COC(=O)C1=CO[C@@H](OC(N)=O)[C@@H]2[C@@H]1C[C@@H]1O[C@]21C [compound 29, (1S,4aS,6S,7R,7aR)-1-(carbamoyloxy)-6,7-epoxy-1,4a,5,6,7,7a-hexahydro-7-methylcyclopenta [c] pyrane-4-carboxylic acid methylester]	17.7%	29.3%	89.9%	88%	> 100 µg/mL							
CCOC(=O)C1=CO[C@@H](OC(=O)NC)[C@@H]2[C@@H]1C[C@@H]1O[C@]21C [compound 4, (1S,4aS,6S,7R,7aR)-6,7-epoxy-1,4a,5,6,7,7a-hexahydro-7-methyl-1-(methylcarbamoyloxy) cyclopenta [c]-pyrane-4-carboxylic acid ethylester]	40.5%	5.6%	70.8%	53%	> 100 µg/mL							
CNC(=O)OC[C@@H]1[C@H](C)CC[C@@H]1C1(COC(=O)NC)CO1 (stereo partly drawn) [Compound 58, 2-[(1S,2R,3R)-2-(methylcarbamoyloxy)methyl-3-methylcyclopento-1-yl]-2,3-epoxy-propane-1-methylcarbamate]								20.6%	22.3%	121.6%	97.0%	> 100.0 µg/mL
CNC(=O)O[C@@H]1OC=C(C(=O)NCCc2ccccc2)[C@H]2C[C@@H]3O[C@]3(C)[C@H]12 [compound 28, (1S,4aS,6S,7R,7aR)-6,7-epoxy-1,4a,5,6,7,7a-hexahydro-7-methyl-1-(methylcarbamoyloxy) cyclopenta [c]-pyrane-4-carboxylic acid phenylethylamide]	41.3%	36.8%	94.3%	114%	> 100 µg/mL							
CNC(=O)O[C@@H]1OC=C(C(=O)OC)[C@H]2CC[C@]3(CO3)[C@@H]12 [compound 53, (1S,4aS,7S,7aR)-1-(methylcarbamoyloxy)-1,4a,5,6,7,7a-hexahydrospiro [cyclopenta [c]pyrane-7(1H),2'-oxirane]-4-carboxylic acid methylester]	26%	9.7%	100%	94.1%	> 100 µg/mL							
CNC(=O)OC1OC=C(C(=O)N2CCN(CCO)CC2)C2CC3OC3(C)C12 [compound 22, (1S,4aS,6S,7R,7aR)-6,7-epoxy-1,4a,5,6,7,7a-hexahydro-7-methyl-1-(methylcarbamoyloxy) cyclopenta [c]-pyrane-4-carboxylic acid 4-(2-hydroxyethyl) piperazylamide]	50.8%	74.9%	93.4%	97.7%	> 100 µg/mL							
